What was measured:
[1] = tested on: Erysiphe graminis f.sp. tritici; test: Fungicidal test, Erysiphe graminis f.sp. tritici (ERYSGT) on wheat, PRCO; type: in vivo; details: 1 d Prot/Foir; METHOD 2 (unbanded)
Puccinia recondita = test: Fungicidal test, Puccinia recondita (PUCCRT) on wheat, PRCO; type: in vivo; details: METHOD 2 (unbanded)
Plasmopara viticola = test: Fungicidal test, Plasmopara viticola (PLASVI) on vines, PRCO; type: in vivo; details: METHOD 2 (unbanded)
Uncinula necator = test: Fungicidal test, Uncinula necator (UNCINE) on vines, PRCO; type: in vivo; details: METHOD 2 (unbanded)
Musca domestica = details: 500 ppm by weight; knockdown assessed 15 minutes after treatment
Description: The activities of individual compounds of formula (I) were determined using a variety of pests. With the exception of nematodes, the pests were treated with a liquid composition containing 500 parts per million (ppm) by weight of a compound unless otherwise stated. Each composition was made by dissolving the compound in an acetone and ethanol (50:50 by volume) mixture and diluting the solution with water containing 0.05% by volume of a wetting agent, SYNPERONIC NP8, until the liquid composition contained the required concentration of the compound.
The test procedure adopted with regard to each pest, except nematodes, was essentially the same and composed supporting a number of the pests on a medium which was usually a substrate, a host plant or a foodstuff on which the pests feed, and treating either or both the medium and the pests with a composition. Pest mortality was assessed usually between three and five days after treatment Knockdown of housefly (Musca domestica) was assessed 15 minutes after treatment

Pyricularia oryzae = type: in vivo; details: METHOD 2 (unbanded)
Venturia inaequalis = test: Fungicidal test, Venturia inaequalis (VENTIN) on apples, PRCO; type: in vivo; details: METHOD 2 (unbanded)
Septoria nodorum = test: Fungicidal test, Septoria nodorum (LEPTNO) on wheat, PRCO; type: in vivo; details: METHOD 2 (unbanded)
Meloidogyne incognita = test: Nematode test, J2 infective juveniles of Meloidogyne incognita, mortality; details: 12.5 ppm; J2 infective juveniles suspended in solution; mortality after three days
[2] = tested on: Phytophthora infestans lycopersici; type: in vivo; details: METHOD 2 (unbanded)
Rhizoctonia solani = test: Fungicidal test, Rhizoctonia solani (RHIZSO) on rice, PRCO; type: in vivo; details: METHOD 2 (unbanded)

| SMILES | ERYSGT 1 d Prot/Foir PRCO [1] | PUCCRT 1 d Prot/Foir PRCO (Puccinia recondita) | PLASVI 1 d Prot/Foir PRCO (Plasmopara viticola) | UNCINE 1 d Prot/Foir PRCO (Uncinula necator) | MUSCDO AC = Musca domestica (knockdown), score (Musca domestica) | PYRIOR 1 d Prot/Foir PRCO (Pyricularia oryzae) | VENTIN 1 d Prot/Foir PRCO (Venturia inaequalis) | LEPTNO 1 d Prot/Foir PRCO (Septoria nodorum) | MELGIN = Meloidogyne incognita, grading of mortality (score) (Meloidogyne incognita) | PHYTIN 1 d Prot/Foir PRCO [2] | RHIZSO 1 d Prot/Foir PRCO (Rhizoctonia solani) |
| --- | --- | --- | --- | --- | --- | --- | --- | --- | --- | --- | --- |
| Cc1nsc(NC(=O)Cc2ccc3oc(-c4sccc4Cl)nc3c2)c1Cl [331(A3)] | 33 | 95 | 49 | 76 | 0 (0 indicates less than 40% mortality) | 81 | 5 | 17 |  |  |  |
| Cc1nc2cc(CC(=O)Nc3snc(C)c3Cl)ccc2s1 [2(A13)] | 31 | 99 |  | 72 | 0 (0 indicates less than 40% mortality) | 47 |  | 62 | 5 (5 indicates 40-79% mortality) | 100 | 43 |
| Cc1nsc(NC(=O)Cc2ccc3oc(C4CCCC4)nc3c2)c1Cl [28(A3)] | 46 | 86 | 0 | 9 | 5 (5 indicates 40-79% mortality) | 81 | 53 | 20 | 0 (0 indicates less than 40% mortality) | 100 |  |
| Cc1nsc(NC(=O)Cc2ccc3oc(CC#N)nc3c2)c1Cl [113(A3)] | 5 | 41 |  | 21 | 0 (0 indicates less than 40% mortality) | 28 | 8 | 20 | 0 (0 indicates less than 40% mortality) | 38 |  |
| COC(=O)CSc1nc2cc(CC(=O)Nc3snc(C)c3Cl)ccc2o1 [229(A3)] | 21 | 6 |  | −9 | 0 (0 indicates less than 40% mortality) | 55 | 10 | 2 | 0 (0 indicates less than 40% mortality) | 92 |  |
| Cc1nsc(NC(=O)Cc2ccc3ocnc3c2)c1Cl [1(A3)] | 88 | 59 | 6 | 43 | 0 (0 indicates less than 40% mortality) | 91 | 25 |  | 5 (5 indicates 40-79% mortality) | 100 |  |
| CSCCc1nc2cc(CC(=O)Nc3snc(C)c3Cl)ccc2o1 [172(A3)] | 40 | 96 | 44 | 36 | 5 (5 indicates 40-79% mortality) | 19 | 69 | 10 | 5 (5 indicates 40-79% mortality) | 100 |  |
| CCCCc1nc2cc(CC(=O)Nc3snc(C)c3Cl)ccc2o1 [5(A3)] | 40 | 88 | 39 | 72 | 0 (0 indicates less than 40% mortality) | 31 | −10 | 30 | 0 (0 indicates less than 40% mortality) | 100 |  |
| CCOCN(C(=O)Cc1ccc2oc(CC(C)(C)C)nc2c1)c1snc(C)c1Cl [15(L3)] | 100 | 17 |  | 99 | 9 (9 indicates 80-100% mortality) | 20 | −21 | 40 | 0 (0 indicates less than 40% mortality) | 97 |  |
| Cc1cc(NC(=O)Cc2ccc3oc(CC(C)(C)C)nc3c2)sn1 [15(A1)] | 43 | 96 |  | 100 | 5 (5 indicates 40-79% mortality) | 87 | 54 | 4 | 0 (0 indicates less than 40% mortality) | 100 |  |
| Cc1nsc(NC(=O)Cc2ccc3nc(C(C)(C)C)[nH]c3c2)c1Cl [9(A43)] | 7 | 25 |  | 7 | 0 (0 indicates less than 40% mortality) | 26 | 38 | −4 | 0 (0 indicates less than 40% mortality) | 0 |  |
| Cc1nsc(NC(=O)Cc2ccc3oc(C(C)(C)CCl)nc3c2)c1Cl [98(A3)] | 98 | 98 | 99 | 100 | 5 (5 indicates 40-79% mortality) | 81 | 96 | 30 | 0 (0 indicates less than 40% mortality) | 100 |  |
| Cc1nc2ccc(CC(=O)Nc3snc(C)c3Cl)cc2[nH]1 [2(A43)] | 20 | 7 |  | 11 | 0 (0 indicates less than 40% mortality) | 48 | 14 | −3 | 5 (5 indicates 40-79% mortality) | 18 |  |
| CCCN(C(=O)Cc1ccc2oc(CC(C)(C)C)nc2c1)c1snc(C)c1Cl [15(D3)] | 55 | 25 |  | 100 | 0 (0 indicates less than 40% mortality) | 27 | −14 | 70 | 0 (0 indicates less than 40% mortality) | 99 |  |
| Cc1nsc(NC(=O)Cc2ccc3oc(CF)nc3c2)c1Cl [73(A3)] | 93 | 100 |  | 93 | 0 (0 indicates less than 40% mortality) | 100 |  | 57 | 0 (0 indicates less than 40% mortality) | 100 | 0 |
| Cc1nsc(NC(=O)Cc2ccc3oc(C(F)(F)C(F)(F)C(F)(F)F)nc3c2)c1Cl [80(A3)] | 99 | 100 |  | 100 | 0 (0 indicates less than 40% mortality) | 91 | −8 | −2 | 0 (0 indicates less than 40% mortality) | 45 |  |
| Cc1nsc(N(C(=O)Cc2ccc3oc(CC(C)(C)C)nc3c2)C(C)C)c1Cl [15(N3)] | 8 | 3 |  | 87 | 0 (0 indicates less than 40% mortality) | 13 | 3 | −2 | 0 (0 indicates less than 40% mortality) | 3 |  |
| Cc1nsc(NC(=O)Cc2ccc3oc(CC(C)(C)C)nc3c2)c1Br [15(A4)] | 91 | 99 |  | 100 | 9 (9 indicates 80-100% mortality) | 98 | 54 | 19 | 0 (0 indicates less than 40% mortality) | 100 |  |
| CCOc1nc2cc(CC(=O)Nc3snc(C)c3Cl)ccc2o1 [204(A3)] | 87 | 99 |  | 81 | 9 (9 indicates 80-100% mortality) | 96 | 22 | 67 | 0 (0 indicates less than 40% mortality) | 100 |  |

Source: patent publication US6544989B2, “Benzazoles: benzoxazole, benzthiazole and benzimidazole derivatives” (Syngenta Limited, priority 1998, dated 2003)
